Laboratory results reported in US10385400B2, “Methods and kits for monitoring response to radiation therapies in cancer” (RNA Diagnostics Inc., priority 2012, dated 2019).
Where two headings read alike, the source gives them in different places.

How the values were obtained:
MCF-7 cells = MCF-7 cells treated with increasing doses of Epirubicin with and without 10 Gy radiation (RIN, RDI, RNA concentration); format: cell-based
Experimental: FIG. 9: Graphs of MCF-7 cells were treated with increasing doses of Epirubicin with and without 10 Gy radiation. A) RIN value vs. Epirubicin; B) RDI value vs. Epirubicin; C) RNA concentration vs. Epirubicin Dose.

A2780 cells [1] = experiment: A2780 cells treated with increasing doses of Epirubicin with and without 10 Gy radiation (RIN, RDI, RNA concentration); format: cell-based; conditions: with 10 Gy radiation, 96 h post-radiation
Experimental: A2780 cells were treated with increasing doses of Epirubicin with and without 10 Gy radiation.A2780 cells were plated into 6 cm plates in 4 ml of RPMI culture medium. The plates were placed in the incubator and the cells were allowed to adhere overnight. The next day, the medium was removed from all plates and new media containing the appropriate epirubicin concentration (1 pM, 5 pM, 20 nM, 50 nM, and 100 nM) was added to the plates. Cells were pre-treated for 24 h with epirubicin prior to receiving radiation treatment. The following day (24 h post epirubicin drug-treatment), the cells were given 10 Gy of x-ray radiation treatment (300 kV, 9 mA) in approximately 4.3 min of x-ray exposure using a RS320 Irradiation System (Gulmay Medical) The cells were returned to the cell culture incubator, and RNA was extracted from the cells 96 h post-radiation treatment (which corresponds to 120 h post-epirubicin treatment).

[2] = test system: breast cancer, T1c-T3 N0-N1 disease; conditions: preoperative AC alone versus AC with addition of docetaxel; cited from earlier work
[3] = test system: breast cancer, T3, T4 or TxN2 disease; conditions: cited from earlier work
[4] = test system: anthracycline-resistant metastatic breast cancer; conditions: cited from earlier work
[5] = test system: SKBR3 breast tumour cells; experiment: RNA concentration and RIN in SKBR3 cells after radiation with or without docetaxel; format: cell-based
Experimental: It was then examined whether similar observations could be observed in vitro for specific breast tumour cell lines. […] If cells were pre-treated with 0.1 μM docetaxel prior to 10 Gray radiation, a 5-fold reduction in cellular RNA concentration was observed (19% of untreated cells). RNA concentration decreases 2 fold (or more) in BT-20, A2780 and MB-468 cells with radiation only. […] Concurrent docetaxel treatment with radiation therapy dramatically reduces cellular RNA content, consistent with the observed findings for patients with locally advanced breast cancer treated with FEC-D chemotherapy followed by radiation treatment. Similar findings were observed when the effects of the above treatments on RIN values were examined in SKBR3 (HER2+, ER−) cells (FIG. 6B).

A2780 cells [6] = experiment: A2780 cells treated with 5 nM Docetaxel, 10 Gy radiation or both for 72 or 96 hours (RIN, RDI); format: cell-based; conditions: n=3
Experimental: In another experiment, A2780 cells were treated with 5 nM Docetaxel, 10 Gy Radiation and 10 Gy Radiation+5 nM Docetaxel for 72 hours or 96 hours.

metastatic breast cancer = conditions: cited from earlier work
[7] = test system: A2780 ovarian tumour cells; experiment: RNA concentration and RIN in A2780 cells after radiation with or without docetaxel; format: cell-based
Experimental: Experiments were conducted to assess whether radiation with or without docetaxel treatment could induce changes in cellular RNA concentration and/or RIN values in A2780 ovarian tumour cells. […] In contrast under the tested conditions, radiation doses up to 5 Gray had no effect on cellular RNA integrity, as no changes in RIN values were observed compared to samples prior to radiation treatment (FIG. 5B). If cells were pre-incubated for 24 hours with 0.1 μM docetaxel prior to 10 Gray radiation treatment, the cellular RIN value decreased to 75% of pre-treatment values. There were additional decreases in RIN when radiation and chemotherapy were used together concurrently. […] Moreover, the combination of both radiation and docetaxel treatment induces even stronger reductions in both cellular RNA content and RNA integrity. These observations are consistent with those described above for tumours of patients with locally advanced breast cancer, in particular for the combined therapy post-treatment, where RNA concentration fell dramatically in response to FEC-D chemotherapy with concurrent radiation therapy and where differences between between responding patients (pCR) and non-reponding patients (no pCR) appeared to be observed post-treatment.

[8] = test system: MCF-7 breast tumour cells; experiment: RNA concentration and RIN in MCF-7 cells after radiation with or without docetaxel; format: cell-based
Experimental: The effects of the above treatments on MCF-7 (ER+, HER2−) cells (FIGS. 7A and 7B) were examined, findings were similar to those of SKBR3 cells, with 4% and 73% reductions in RNA levels observed for the 10 Gray and 10 Gray/0.1 μM docetaxel treatments, respectively. […] Moreover, only a 4% reduction in cellular RIN values were observed when cells were pre-treated with 0.1 μM docetaxel prior to the 10 Gray radiation.

[9] = test system: stage IIB to III locally advanced breast cancer; conditions: cited from earlier work
[10] = test system: locally advanced breast cancer; conditions: paclitaxel 175 mg/m^2 and 5FU with 50.4 Gy, then 3 cycles of FEC, then surgery; 23 patients; cited from earlier work
[11] = after 4 cycles of CVAP, 4 cycles of docetaxel versus 4 more cycles of CVAP, intention-to-treat
[12] = pre-treated with 0.1 μM docetaxel prior to 10 Gray radiation
[13] = 35 mg/m^2 weekly for 3 of every 4 weeks
[14] = paclitaxel 30 mg/m^2 twice weekly with radiation to 45 Gy, then surgery

COc1cccc2c1C(=O)c1c(O)c3c(c(O)c1C2=O)C[C@@](O)(C(=O)CO)C[C@@H]3O[C@H]1C[C@H](N)[C@@H](O)[C@H](C)O1 [Epirubicin]
RIN value vs Epirubicin dose (MCF-7 cells; combined with 10 Gy radiation): loss in RIN value | RNA concentration vs Epirubicin dose (MCF-7 cells; increasing doses of Epirubicin): loss in RNA concentration | RDI value vs Epirubicin dose (MCF-7 cells; with radiation, up to 100 uM Epirubicin): increase in RDI value | RIN value vs Epirubicin dose (A2780 cells [1]; low doses of Epirubicin): loss in RIN value | RDI value vs Epirubicin dose (A2780 cells [1]; low drug doses): RDI values increase | RNA concentration vs Epirubicin dose (A2780 cells [1]; low drug doses): increased loss in RNA concentration

CC(=O)O[C@@]12CO[C@@H]1C[C@H](O)[C@@]1(C)C(=O)[C@H](O)C3=C(C)[C@@H](OC(=O)[C@H](O)[C@@H](NC(=O)OC(C)(C)C)c4ccccc4)C[C@@](O)([C@@H](OC(=O)c4ccccc4)[C@H]21)C3(C)C [docetaxel]
clinical complete response (cCR) [2]: 63.6% | pCR [2]: 26.1% | proportion of patients with negative nodes [2]: 58.2% | DFS ([3]; 38 months median follow-up): 90% | OS ([3]; 38 months median follow-up): 97% | cCR [3, 11]: 94% | pCR [3, 11]: 31% | response rates [4]: up to 50% | effect of concurrent docetaxel on effects of radiation on RNA content and RNA integrity ([5]; 0.1 μM docetaxel, 10 Gray): strongly augmented | cellular RNA concentration, % of untreated cells [5, 12]: 19% | reduction in cellular RNA concentration [5, 12]: 5 fold | reduction in cellular RIN values ([5]; radiation, cells pre-treated with docetaxel): 9% | mean RDI value (A2780 cells [6]; 10 Gy radiation + 5 nM Docetaxel compared with Docetaxel alone, 96 hr): increase in RDI value | mean RIN value (A2780 cells [6]; 10 Gy radiation + 5 nM Docetaxel, 72 hr): increased loss in RIN value | overall survival (OS) (metastatic breast cancer; [13]): 18.6 months | progression-free survival (metastatic breast cancer; [13]): 5.5 months | overall survival (OS) (metastatic breast cancer; 100 mg/m^2 every 3 weeks): 18.3 months | progression-free survival (metastatic breast cancer; 100 mg/m^2 every 3 weeks): 5.7 months | overall serious toxicity (metastatic breast cancer; Q 3-week arm): 88.1% | overall serious toxicity (metastatic breast cancer; weekly arm): 55.9% | effect of concurrent docetaxel on radiation-induced reduction of RNA content and integrity ([7]; 0.1 μM docetaxel, 10 Gray): strongly augmented | cellular RIN value, % of pre-treatment values ([7]; pre-incubated 24 hours with 0.1 μM docetaxel prior to 10 Gray radiation): 75% | additional reduction of cellular RNA concentration ([7]; pre-incubation with 0.1 μM docetaxel, 10 Gray radiation, versus radiation alone): 6.5 fold | effect of concurrent docetaxel on effect of radiation on RNA content and integrity ([8]; 0.1 μM docetaxel, 10 Gray): only slightly augmented | reduction in RNA levels ([8]; 10 Gray/0.1 μM docetaxel): 73% | reduction in cellular RIN values [8, 12]: 4%

CC(=O)O[C@H]1C(=O)[C@@]2(C)[C@H]([C@H](OC(=O)c3ccccc3)[C@]3(O)C[C@H](OC(=O)[C@H](O)[C@@H](NC(=O)c4ccccc4)c4ccccc4)C(C)=C1C3(C)C)[C@]1(OC(C)=O)CO[C@@H]1C[C@@H]2O [paclitaxel]
patients achieving a pCR [9, 14]: Sixteen | patients achieving a pPR [9, 14]: 18% | grade 4 leucopenia ([9]; postoperative phase): 10% | grade 4 toxicities ([9]; preoperative chemoradiation phase, paclitaxel 30 mg/m^2 twice weekly with radiation to 45 Gy): No grade 4 toxicities were observed | clinical CR [10]: 82.6% | overall 2-year survival [10]: 80.7% | pCR [10]: 52.2%
